Data published in ChEMBL document CHEMBL1811755, “α-Tocotrienol quinone modulates oxidative stress response and the biochemistry of aging” (Bioorg Med Chem Lett, 2011).
The source made the active and inactive calls. The rule behind the calls is not given here.

Legend:
Fibroblast [1] = assay: Cytoprotectant activity against L-buthionine-(S,R)-sulfoximine-induced cell death in Leigh syndrome patient fibroblasts assessed as increase of cell viability up to 1000 nM; type: functional, cell-based; details: Homo sapiens
Fibroblast [2] = assay: Cytoprotectant activity against L-buthionine-(S,R)-sulfoximine-induced cell death in Friedreich ataxia patient fibroblasts assessed as increase of cell viability up to 1000 nM; type: functional, cell-based; details: Homo sapiens
Rattus norvegicus [3] = assay: In vivo metabolic stability in rat assessed as parent compound remaining at 5 mg/kg, iv; type: ADME, organism-based; set-up: dose 5 mg/kg, route intravenous
Rattus norvegicus [4] = assay: In vivo metabolic stability in rat assessed as parent compound remaining at 25 mg/kg, po; type: ADME, organism-based; set-up: dose 25 mg/kg, route oral
[5] = Cytoprotectant activity against L-buthionine-(S,R)-sulfoximine-induced cell death in Friedreich ataxia patient fibroblasts assessed as increase of cell viability; type: functional, cell-based; details: Homo sapiens, Fibroblast
Salmonella typhimurium = assay: Mutagenic activity in Salmonella Typhimurium by Ames test; type: toxicity, organism-based; details: salmonella enterica subsp. enterica serovar typhimurium
Plasma [6] = assay: Volume of infusion in rat plasma at 2 mg/kg, iv; type: ADME, organism-based; set-up: dose 2 mg/kg, route intravenous; details: in vivo
[7] = Terminal half life in dog plasma at 10 mg/kg, po; type: ADME, organism-based, Canis lupus familiaris; set-up: dose 10 mg/kg, route oral; details: read-out: beta t1/2 (converted)
[8] = AUCt in dog plasma at 2 mg/kg, iv; type: ADME, organism-based, Canis lupus familiaris; set-up: dose 2 mg/kg, route intravenous
[9] = Terminal half life in rat plasma at 2 mg/kg, iv; type: ADME, organism-based; set-up: dose 2 mg/kg, route intravenous; details: read-out: beta t1/2 (converted)
[10] = AUCt in rat plasma at 2 mg/kg, iv; type: ADME, organism-based; set-up: dose 2 mg/kg, route intravenous
CHO = assay: Genotoxicity in CHO cells assessed as induction of micronucleus; type: toxicity, cell-based, Cricetulus griseus; details: chinese hamster
[11] = AUCt in mouse plasma at 25 mg/kg, ip; type: ADME, organism-based; set-up: dose 25 mg/kg, route intraperitoneal
[12] = AUC (infinity) in dog plasma at 10 mg/kg, po; type: ADME, organism-based, Canis lupus familiaris; set-up: time infinity, dose 10 mg/kg, route oral
Canis familiaris [13] = assay: Prolongation of activated partial thromboplastin time in dog at 100 mg/kg/day, po; type: functional, organism-based; details: Canis lupus familiaris
[14] = Cmax in rat plasma at 25 mg/kg, po; type: ADME, organism-based; set-up: dose 25 mg/kg, route oral
[15] = AUC (infinity) in dog plasma at 2 mg/kg, iv; type: ADME, organism-based, Canis lupus familiaris; set-up: dose 2 mg/kg, route intravenous, time infinity
[16] = Volume of distribution at steady state in rat plasma at 2 mg/kg, iv; type: ADME, organism-based; set-up: dose 2 mg/kg, route intravenous; details: read-out: Vdss
[17] = Terminal half life in mouse brain at 25 mg/kg, ip; type: ADME, organism-based; set-up: dose 25 mg/kg, route intraperitoneal; details: read-out: beta t1/2 (converted)
[18] = Drug level in dog cornea at 300 mg/kg/day, po qd for 7 days; type: ADME, organism-based, Canis lupus familiaris; set-up: route oral; details: read-out: Drug uptake
[19] = Toxicity in rat administered orally once daily for 28 days; type: organism-based; details: in vivo, po
[20] = AUCt in rat plasma at 25 mg/kg, po; type: ADME, organism-based; set-up: dose 25 mg/kg, route oral
[21] = AUC (infinity) in mouse plasma at 25 mg/kg, ip; type: ADME, organism-based; set-up: time infinity, dose 25 mg/kg, route intraperitoneal
[22] = Bioavailability in fed rat plasma at 10 mg/kg, po; type: ADME, organism-based
[23] = Tmax in human plasma at 2 mg/kg, po; type: ADME, organism-based; set-up: dose 2 mg/kg, route oral
[24] = Tmax in rat plasma at 10 mg/kg, po; type: ADME, organism-based; set-up: dose 10 mg/kg, route oral
Heart = assay: Drug level in mouse heart at 25 mg/kg, ip; type: ADME, organism-based; set-up: dose 25 mg/kg, route intraperitoneal; details: in vivo
[25] = Terminal half life in dog plasma at 2 mg/kg, iv; type: ADME, organism-based, Canis lupus familiaris; set-up: dose 2 mg/kg, route intravenous; details: read-out: beta t1/2 (converted)
[26] = Tmax in rat plasma at 25 mg/kg, po; type: ADME, organism-based; set-up: dose 25 mg/kg, route oral
[27] = Drug level in dog retina at 300 mg/kg/day, po qd for 7 days; type: ADME, organism-based, Canis lupus familiaris; set-up: route oral; details: read-out: Drug uptake
[28] = Cytoprotectant activity against L-buthionine-(S,R)-sulfoximine-induced cell death in Leigh syndrome patient fibroblasts assessed as increase of cell viability; type: functional, cell-based; details: Homo sapiens, Fibroblast
Canis familiaris [29] = assay: Prolongation of prothrombin time in dog at 100 mg/kg/day, po; type: functional, organism-based; details: Canis lupus familiaris
[30] = Cmax in dog plasma at 10 mg/kg, po; type: ADME, organism-based, Canis lupus familiaris; set-up: dose 10 mg/kg, route oral
[31] = Clearance in dog plasma at 2 mg/kg, iv; type: ADME, organism-based, Canis lupus familiaris; set-up: dose 2 mg/kg, route intravenous
[32] = Cmax in mouse plasma at 25 mg/kg, ip; type: ADME, organism-based; set-up: dose 25 mg/kg, route intraperitoneal
[33] = Cmax in human plasma at 2 mg/kg, po; type: ADME, organism-based; set-up: dose 2 mg/kg, route oral
Rattus norvegicus [34] = assay: Prolongation of prothrombin time in rat at 100 mg/kg/day, po; type: functional, organism-based
Mus musculus [35] = assay: Ratio of drug level in mouse brain to serum at 25 mg/kg, ip
Brain [36] = assay: AUCt in mouse brain at 25 mg/kg, ip; type: ADME, organism-based; set-up: dose 25 mg/kg, route intraperitoneal; details: in vivo
[37] = AUCt in dog plasma at 10 mg/kg, po; type: ADME, organism-based, Canis lupus familiaris; set-up: dose 10 mg/kg, route oral
[38] = Apparent volume of distribution in dog plasma at 2 mg/kg, iv; type: ADME, organism-based, Canis lupus familiaris; set-up: dose 2 mg/kg, route intravenous; details: read-out: Vz
[39] = Tmax in mouse brain at 25 mg/kg, ip; type: ADME, organism-based; set-up: dose 25 mg/kg, route intraperitoneal
Plasma [40] = assay: AUC (infinity) in rat plasma at 2 mg/kg, iv; type: ADME, organism-based; set-up: time infinity, dose 2 mg/kg, route intravenous; details: in vivo
Mus musculus [41] = assay: Ratio of drug level in mouse heart to serum at 25 mg/kg, ip; details: other tissue
Fibroblast [42] = assay: Ratio of compound EC50 to co-enzyme Q10 EC50 for cytoprotectant activity in Friedreich ataxia patient fibroblasts; type: functional, Homo sapiens
[43] = Cmax in rat plasma at 10 mg/kg, po; type: ADME, organism-based; set-up: dose 10 mg/kg, route oral
[44] = Tmax in dog plasma at 10 mg/kg, po; type: ADME, organism-based, Canis lupus familiaris; set-up: dose 10 mg/kg, route oral
[45] = Cmax in mouse brain at 25 mg/kg, ip; type: ADME, organism-based; set-up: dose 25 mg/kg, route intraperitoneal
Fibroblast [46] = assay: Ratio of compound EC50 to resveratrol EC50 for cytoprotectant activity in Friedreich ataxia patient fibroblasts; type: functional, Homo sapiens
Plasma [47] = assay: Volume of infusion in dog plasma at 2 mg/kg, iv; type: ADME, organism-based, Canis lupus familiaris; set-up: dose 2 mg/kg, route intravenous; details: in vivo
Brain [48] = assay: AUC (infinity) in mouse brain at 25 mg/kg, ip; type: ADME, organism-based; set-up: time infinity, dose 25 mg/kg, route intraperitoneal; details: in vivo
Fibroblast [49] = assay: Ratio of compound EC50 to idebenone EC50 for cytoprotectant activity in Friedreich ataxia patient fibroblasts; type: functional, Homo sapiens
[50] = Tmax in mouse plasma at 25 mg/kg, ip; type: ADME, organism-based; set-up: dose 25 mg/kg, route intraperitoneal
[51] = Plasma concentration in dog at 300 mg/kg/day, po qd for 7 days; type: ADME, organism-based, Canis lupus familiaris; set-up: route oral
[52] = AUC (infinity) in rat plasma at 10 mg/kg, po; type: ADME, organism-based; set-up: time infinity, dose 10 mg/kg, route oral
Rattus norvegicus [53] = assay: Prolongation of activated partial thromboplastin time in rat at 100 mg/kg/day, po; type: functional, organism-based
[54] = Terminal half life in rat plasma at 10 mg/kg, po; type: ADME, organism-based; set-up: dose 10 mg/kg, route oral; details: read-out: beta t1/2 (converted)
[55] = Bioavailability in dog plasma at 10 mg/kg, po; type: ADME, organism-based, Canis lupus familiaris
[56] = Bioavailability in fasted rat plasma at 25 mg/kg, po; type: ADME, organism-based
Serum = assay: Drug level in mouse serum at 25 mg/kg, ip; type: ADME, organism-based; set-up: dose 25 mg/kg, route intraperitoneal; details: in vivo
[57] = Toxicity in dog administered orally once daily for 28 days; type: organism-based, Canis lupus familiaris; details: in vivo, po
[58] = Volume of distribution at steady state in dog plasma at 2 mg/kg, iv; type: ADME, organism-based, Canis lupus familiaris; set-up: dose 2 mg/kg, route intravenous; details: read-out: Vdss
[59] = AUCt in rat plasma at 10 mg/kg, po; type: ADME, organism-based; set-up: dose 10 mg/kg, route oral
[60] = Terminal half life in mouse plasma at 25 mg/kg, ip; type: ADME, organism-based; set-up: dose 25 mg/kg, route intraperitoneal; details: read-out: beta t1/2 (converted)
[61] = Apparent volume of distribution in rat plasma at 2 mg/kg, iv; type: ADME, organism-based; set-up: dose 2 mg/kg, route intravenous; details: read-out: Vz

COC1=C(OC)C(=O)C(C/C=C(\C)CC/C=C(\C)CC/C=C(\C)CC/C=C(\C)CC/C=C(\C)CC/C=C(\C)CC/C=C(\C)CC/C=C(\C)CC/C=C(\C)CCC=C(C)C)=C(C)C1=O
Activity (Fibroblast [1]): inactive | Activity (Fibroblast [2]): inactive

CC(C)=CCC/C(C)=C/CC/C(C)=C/CC[C@]1(C)CCc2c(C)c(O)c(C)c(C)c2O1 [ALPHA-TOCOTRIENOL]
Stability (Rattus norvegicus [3]): 7% | Stability (Rattus norvegicus [4]): 5%

COC1=C(OC)C(=O)C(CCCCCCCCCCO)=C(C)C1=O [IDEBENONE]
EC50 [5]: 850 nM

Oc1ccc(/C=C/c2cc(O)cc(O)c2)cc1 [RESVERATROL]
EC50 [5]: 1440 nM

CC(C)=CCC/C(C)=C/CC/C(C)=C/CC[C@@](C)(O)CCC1=C(C)C(=O)C(C)=C(C)C1=O [VATIQUINONE]
Activity (Salmonella typhimurium): Non-toxic | Vi (Plasma [6]): 0.117 L/kg | half-life [7]: 7.6 h | AUC(0-t) [8]: 3410 ng·h/mL | half-life [9]: 3.5 h | AUC(0-t) [10]: 984 ng·h/mL | Activity (CHO): Non-toxic | AUC(0-t) [11]: 4840 ng·h/mL | AUC(0-inf) [12]: 2820 ng·h/mL | Activity (Canis familiaris [13]): Active | Cmax [14]: 248 ng/mL | AUC(0-inf) [15]: 3570 ng·h/mL | Vd [16]: 0.222 L/kg | half-life [17]: 12.4 h | concentration at 168 h [18]: 755 ng/g | NOAEL at 672 h [19]: 100 mg/kg | AUC(0-t) [20]: 961 ng·h/mL | AUC(0-inf) [21]: 5860 ng·h/mL | bioavailability [22]: 89% | Tmax [23]: 2 h | Tmax [24]: 3.5 h | Drug uptake (Heart): 848 ng/g | half-life [25]: 7.5 h | Tmax [26]: 4 h | concentration at 168 h [27]: 11200 ng/g | EC50 [28]: 30 nM | Activity (Canis familiaris [29]): Active | Cmax [30]: 442 ng/mL | clearance [31]: 9.57 mL/min/kg | Cmax [32]: 1190 ng/mL | Cmax [33]: 167 ng/mL | EC50 [5]: 24 nM | Activity (Rattus norvegicus [34]): Active | Ratio (Mus musculus [35]): 1.83 mL/g | AUCt (Brain [36]): 7738 ng·h/g | AUC(0-t) [37]: 2690 ng·h/mL | Vd [38]: 6.25 L/kg | Tmax [39]: 12 h | AUC (Plasma [40]): 1069 ng·h/mL | Ratio (Mus musculus [41]): 0.71 mL/g | Ratio EC50 (Fibroblast [42]): 100 | Cmax [43]: 931 ng/mL | Tmax [44]: 2.8 h | Cmax [45]: 539 ng/g | Ratio EC50 (Fibroblast [46]): 100 | Vi (Plasma [47]): 0.095 L/kg | AUC (Brain [48]): 10724 ng·h/g | Ratio EC50 (Fibroblast [49]): 100 | Tmax [50]: 0.5 h | concentration at 168 h [51]: 10000 ng/mL | AUC(0-inf) [52]: 4780 ng·h/mL | Activity (Rattus norvegicus [53]): Active | half-life [54]: 3.5 h | bioavailability [55]: 17% | bioavailability [56]: 4.1% | Drug uptake (Serum): 300 ng/mL | NOAEL at 672 h [57]: 100 mg/kg | Vd [58]: 2.54 L/kg | AUC(0-t) [59]: 4730 ng·h/mL | half-life [60]: 7.6 h | Vd [61]: 3.73 L/kg
